Experimental data reported in publication PMC10008561 (Nature Communications, 2023).
“And” between values parts separate entries of the source, which are not always exact repeats. Equal values may be shown once.

Experiments:
Experiment in all cases: cell-based
human KOR (Gustducin) [1] = molecular target: T1, human KOR (Gustducin) (Homo sapiens, UniProt P41145)
T1 construct: expressed in transfected cells; host or cells: HEK293T

human KOR (Gustducin) [2] = molecular target: T2, human KOR (Gustducin) (Homo sapiens, UniProt P41145, D105A); settings: HEK-293T
T2 construct: expressed in transfected cells; host or cells: HEK293T

human KOR (Gustducin) [3] = molecular target: T3, human KOR (Gustducin) (Homo sapiens, UniProt P41145, D155A); settings: HEK-293T
T3 construct: expressed in transfected cells; host or cells: HEK293T

human KOR (Gustducin) [4] = molecular target: T4, human KOR (Gustducin) (Homo sapiens, UniProt P41145, D266A); settings: HEK-293T
T4 construct: expressed in transfected cells; host or cells: HEK293T

human KOR (Gustducin) [5] = molecular target: T5, human KOR (Gustducin) (Homo sapiens, UniProt P41145, D334A); settings: HEK-293T
T5 construct: expressed in transfected cells; host or cells: HEK293T

human KOR (Gustducin) [6] = molecular target: T6, human KOR (Gustducin) (Homo sapiens, UniProt P41145, E297A); settings: HEK-293T
T6 construct: expressed in transfected cells; host or cells: HEK293T

human KOR (Gustducin) [7] = molecular target: T7, human KOR (Gustducin) (Homo sapiens, UniProt P41145, F114L); settings: HEK-293T
T7 construct: expressed in transfected cells; host or cells: HEK293T

human KOR (Gustducin) [8] = molecular target: T8, human KOR (Gustducin) (Homo sapiens, UniProt P41145, F283A); settings: HEK-293T
T8 construct: expressed in transfected cells; host or cells: HEK293T

human KOR (Gustducin) [9] = molecular target: T9, human KOR (Gustducin) (Homo sapiens, UniProt P41145, G319L); settings: HEK-293T
T9 construct: expressed in transfected cells; host or cells: HEK293T

human KOR (Gustducin) [10] = molecular target: T10, human KOR (Gustducin) (Homo sapiens, UniProt P41145, K200A); settings: HEK-293T
T10 construct: expressed in transfected cells; host or cells: HEK293T

human KOR (Gustducin) [11] = molecular target: T11, human KOR (Gustducin) (Homo sapiens, UniProt P41145, K227A); settings: HEK-293T
T11 construct: expressed in transfected cells; host or cells: HEK293T

human KOR (Gustducin) [12] = molecular target: T12, human KOR (Gustducin) (Homo sapiens, UniProt P41145, L253A); settings: HEK-293T
T12 construct: expressed in transfected cells; host or cells: HEK293T

human KOR (Gustducin) [13] = molecular target: T13, human KOR (Gustducin) (Homo sapiens, UniProt P41145, N141A); settings: HEK-293T
T13 construct: expressed in transfected cells; host or cells: HEK293T

human KOR (Gustducin) [14] = molecular target: T14, human KOR (Gustducin) (Homo sapiens, UniProt P41145, N322A); settings: HEK-293T
T14 construct: expressed in transfected cells; host or cells: HEK293T

human KOR (Gustducin) [15] = molecular target: T15, human KOR (Gustducin) (Homo sapiens, UniProt P41145, N326A); settings: HEK-293T
T15 construct: expressed in transfected cells; host or cells: HEK293T

human KOR (Gustducin) [16] = molecular target: T16, human KOR (Gustducin) (Homo sapiens, UniProt P41145, Q115N); settings: HEK-293T
T16 construct: expressed in transfected cells; host or cells: HEK293T

human KOR (Gustducin) [17] = molecular target: T17, human KOR (Gustducin) (Homo sapiens, UniProt P41145, R170A); settings: HEK-293T
T17 construct: expressed in transfected cells; host or cells: HEK293T

human KOR (Gustducin) [18] = molecular target: T18, human KOR (Gustducin) (Homo sapiens, UniProt P41145, R257A); settings: HEK-293T
T18 construct: expressed in transfected cells; host or cells: HEK293T

human KOR (Gustducin) [19] = molecular target: T19, human KOR (Gustducin) (Homo sapiens, UniProt P41145, R271A); settings: HEK-293T
T19 construct: expressed in transfected cells; host or cells: HEK293T

human KOR (Gustducin) [20] = molecular target: T20, human KOR (Gustducin) (Homo sapiens, UniProt P41145, R274A); settings: HEK-293T
T20 construct: expressed in transfected cells; host or cells: HEK293T

human KOR (Gustducin) [21] = molecular target: T21, human KOR (Gustducin) (Homo sapiens, UniProt P41145, T94V); settings: HEK-293T
T21 construct: expressed in transfected cells; host or cells: HEK293T

human KOR (Gustducin) [22] = molecular target: T22, human KOR (Gustducin) (Homo sapiens, UniProt P41145, Y139L); settings: HEK-293T
T22 construct: expressed in transfected cells; host or cells: HEK293T

human KOR (Gustducin) [23] = molecular target: T23, human KOR (Gustducin) (Homo sapiens, UniProt P41145, Y320L); settings: HEK-293T
T23 construct: expressed in transfected cells; host or cells: HEK293T

human KOR [24] = molecular target: T24, human KOR (Homo sapiens, UniProt P41145, E209A); settings: HEK-293T
T24 construct: expressed in transfected cells; host or cells: HEK 293T (ATCC, CRL-3216)

human KOR [25] = molecular target: T25, human KOR (Homo sapiens, UniProt P41145, K227A); settings: HEK-293T
T25 construct: expressed in transfected cells; host or cells: HEK 293T (ATCC, CRL-3216)

human KOR [26] = molecular target: T26, human KOR (Homo sapiens, UniProt P41145, Q115N); settings: HEK-293T
T26 construct: expressed in transfected cells; host or cells: HEK 293T (ATCC, CRL-3216)

human KOR [27] = molecular target: T27, human KOR (Homo sapiens, UniProt P41145, V134A); settings: HEK-293T
T27 construct: expressed in transfected cells; host or cells: HEK 293T (ATCC, CRL-3216)

human KOR [28] = molecular target: T28, human KOR (Homo sapiens, UniProt P41145, W124L); settings: HEK-293T
T28 construct: expressed in transfected cells; host or cells: HEK 293T (ATCC, CRL-3216)

human KOR [29] = molecular target: T29, human KOR (Homo sapiens, UniProt P41145, Y320L); settings: HEK-293T
T29 construct: expressed in transfected cells; host or cells: HEK 293T (ATCC, CRL-3216)
T29 sequence (P41145 whole entry Y320L): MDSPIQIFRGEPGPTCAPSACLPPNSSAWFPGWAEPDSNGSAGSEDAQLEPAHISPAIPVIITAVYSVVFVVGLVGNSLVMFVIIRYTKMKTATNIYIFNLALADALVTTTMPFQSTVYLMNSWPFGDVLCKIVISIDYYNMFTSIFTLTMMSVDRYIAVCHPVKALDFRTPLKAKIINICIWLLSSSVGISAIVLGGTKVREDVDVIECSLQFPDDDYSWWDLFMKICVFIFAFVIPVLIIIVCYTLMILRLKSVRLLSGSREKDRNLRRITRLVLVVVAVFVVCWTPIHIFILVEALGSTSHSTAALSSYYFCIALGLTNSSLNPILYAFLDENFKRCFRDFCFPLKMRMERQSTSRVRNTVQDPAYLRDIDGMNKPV

T24 sequence (P41145 whole entry E209A): as the sequence (P41145 whole entry Y320L) above, with E209A, L320Y counted along it
T28 sequence (P41145 whole entry W124L): as the sequence (P41145 whole entry Y320L) above, with W124L, L320Y counted along it
T27 sequence (P41145 whole entry V134A): as the sequence (P41145 whole entry Y320L) above, with V134A, L320Y counted along it
T1 sequence (P41145 whole entry): as the sequence (P41145 whole entry Y320L) above, with L320Y counted along it
T4 sequence (P41145 whole entry D266A): as the sequence (P41145 whole entry Y320L) above, with D266A, L320Y counted along it
T20 sequence (P41145 whole entry R274A): as the sequence (P41145 whole entry Y320L) above, with R274A, L320Y counted along it
T23 sequence (P41145 whole entry Y320L): as the sequence (P41145 whole entry Y320L) above
T5 sequence (P41145 whole entry D334A): as the sequence (P41145 whole entry Y320L) above, with L320Y, D334A counted along it
T2 sequence (P41145 whole entry D105A): as the sequence (P41145 whole entry Y320L) above, with D105A, L320Y counted along it
T3 sequence (P41145 whole entry D155A): as the sequence (P41145 whole entry Y320L) above, with D155A, L320Y counted along it
T21 sequence (P41145 whole entry T94V): as the sequence (P41145 whole entry Y320L) above, with T94V, L320Y counted along it
T16 sequence (P41145 whole entry Q115N): as the sequence (P41145 whole entry Y320L) above, with Q115N, L320Y counted along it
T26 sequence (P41145 whole entry Q115N): as the sequence (P41145 whole entry Y320L) above, with Q115N, L320Y counted along it
T18 sequence (P41145 whole entry R257A): as the sequence (P41145 whole entry Y320L) above, with R257A, L320Y counted along it
T10 sequence (P41145 whole entry K200A): as the sequence (P41145 whole entry Y320L) above, with K200A, L320Y counted along it
T15 sequence (P41145 whole entry N326A): as the sequence (P41145 whole entry Y320L) above, with L320Y, N326A counted along it
T9 sequence (P41145 whole entry G319L): as the sequence (P41145 whole entry Y320L) above, with G319L, L320Y counted along it
T7 sequence (P41145 whole entry F114L): as the sequence (P41145 whole entry Y320L) above, with F114L, L320Y counted along it
T14 sequence (P41145 whole entry N322A): as the sequence (P41145 whole entry Y320L) above, with L320Y, N322A counted along it
T13 sequence (P41145 whole entry N141A): as the sequence (P41145 whole entry Y320L) above, with N141A, L320Y counted along it
T19 sequence (P41145 whole entry R271A): as the sequence (P41145 whole entry Y320L) above, with R271A, L320Y counted along it
T8 sequence (P41145 whole entry F283A): as the sequence (P41145 whole entry Y320L) above, with F283A, L320Y counted along it
T6 sequence (P41145 whole entry E297A): as the sequence (P41145 whole entry Y320L) above, with E297A, L320Y counted along it
T12 sequence (P41145 whole entry L253A): as the sequence (P41145 whole entry Y320L) above, with L253A, L320Y counted along it
T17 sequence (P41145 whole entry R170A): as the sequence (P41145 whole entry Y320L) above, with R170A, L320Y counted along it
T25 sequence (P41145 whole entry K227A): as the sequence (P41145 whole entry Y320L) above, with K227A, L320Y counted along it
T11 sequence (P41145 whole entry K227A): as the sequence (P41145 whole entry Y320L) above, with K227A, L320Y counted along it
T22 sequence (P41145 whole entry Y139L): as the sequence (P41145 whole entry Y320L) above, with Y139L, L320Y counted along it

## CN(C(=O)/C=C/c1ccoc1)[C@@H]1CC[C@@]2(O)[C@H]3Cc4ccc(O)c5c4[C@@]2(CCN3CC2CC2)[C@H]1O5 [Nalfurafine, nalfurafine]
Human KOR (Gustducin) [1]
  Emax%: 65%
Human KOR (Gustducin) [1]; HEK-293T
  Emax: 65.6%
Human KOR (Gustducin) [2]
  Emax: 70.2%
Human KOR (Gustducin) [3]
  Emax: 91.8%
Human KOR (Gustducin) [4]
  Emax: 62.6%
Human KOR (Gustducin) [5]
  Emax: 100%
Human KOR (Gustducin) [6]
  Emax: 73.1%
Human KOR (Gustducin) [7]
  Emax: 60.6%
Human KOR (Gustducin) [8]
  Emax: 100%
Human KOR (Gustducin) [9]
  Emax: 80.9%
Human KOR (Gustducin) [10]
  Emax: 75.7%
Human KOR (Gustducin) [11]
  Emax: 85.5%
Human KOR (Gustducin) [12]
  Emax: 61.4%
Human KOR (Gustducin) [13]
  Emax: 79.1%
Human KOR (Gustducin) [14]
  Emax: 96.6%
Human KOR (Gustducin) [15]
  Emax: 49.2%
Human KOR (Gustducin) [16]
  Emax: 62.9%
Human KOR (Gustducin) [17]
  Emax: 77.5%
Human KOR (Gustducin) [18]
  Emax: 53.8%
Human KOR (Gustducin) [19]
  Emax: 56.9%
Human KOR (Gustducin) [20]
  Emax: 82%
Human KOR (Gustducin) [21]
  Emax: 73.6%
Human KOR (Gustducin) [22]
  Emax: 55.3%
Human KOR (Gustducin) [23]
  Emax: 80%
Human KOR [24]
  Emax: 100 ± 2%
Human KOR [24]; read-out: cAMP response
  activation at 1 pM: 28.4%
  activation at 3.162 pM: 77.1%
  activation at 10 pM: 90.6%
  activation at 31.62 pM: 94.9%
  activation at 0.0001 µM: 99.2%
  activation at 0.001 µM: 99.5%
  activation at 0.01 µM: 101%
  activation at 0.1 µM: 100%
  activation at 1 µM: 98.2%
  activation at […]: 96.6% and 99.9% and 99.6% and 98.7%
Human KOR [25]
  Emax: 100 ± 3%
Human KOR [26]
  Emax: 98 ± 3%
Human KOR [27]
  Emax: 93 ± 3%
Human KOR [27]; read-out: cAMP response
  activation at 3.162 pM: 23.5%
  activation at 10 pM: 48.2%
  activation at 31.62 pM: 53.1%
  activation at 0.0001 µM: 62.8%
  activation at 0.001 µM: 82.5%
  activation at 0.01 µM: 96.2%
  activation at 0.1 µM: 104%
  activation at 1 µM: 96.6%
  activation at […]: 58.2% and 90% and 99.4% and 95.7%
Human KOR [28]
  Emax: 98 ± 3%
Human KOR [28]; read-out: cAMP response
  activation at 10 pM: 17.5%
  activation at 0.0001 µM: 29.6%
  activation at 0.001 µM: 65.5%
  activation at 0.01 µM: 88.1%
  activation at 0.1 µM: 106%
  activation at 1 µM: 99.8%
  activation at […]: 45.8% and 75.2% and 98.3% and 97.1%
Human KOR [29]
  Emax: 105 ± 2%
Human KOR [29]; read-out: cAMP response
  activation at 1 pM: 16.5%
  activation at 3.162 pM: 13.2%
  activation at 10 pM: 16.1%
  activation at 31.62 pM: 35.7%
  activation at 0.0001 µM: 59%
  activation at 0.001 µM: 95.7%
  activation at 0.01 µM: 103%
  activation at 0.1 µM: 105%
  activation at 1 µM: 105%
  activation at […]: 78.6% and 99.7% and 105% (2×)
